Earlier results, collected in patent US20080138383A1, “COMPOSITIONS AND METHODS FOR TREATING SEIZURES” (priority 2006, published 2008).
Like-named read-outs stand apart in the source and are kept apart here.

Tests used:
[1] = in vivo

In the case of `O=C1CN=C(c2ccccc2)c2cc(Cl)ccc2N1` [desmethyldiazepam], the “activity relative to the parent drug” value (main active metabolite versus diazepam) is listed as “somewhat less active than the parent drug”.

For `O=C1Nc2ccc(Cl)cc2C(c2ccccc2Cl)=NC1O` (centres unmarked) [lorazepam], the onset of action (after intramuscular administration) is given as “up to 1 hour”, the onset of action (after intravenous administration) is given as “several minutes” and the “dose equivalent to 5 mg of diazepam” value (estimates) is given as “approximately 0.5 mg”.

In the case of `Cc1ncc2n1-c1ccc(Cl)cc1C(c1ccccc1F)=NC2` [midazolam], the elimination half-life [1] is given as 1.5 to 3.5 h.
